Measurements taken from ChEMBL document CHEMBL4808232, “Discovery of IDO1 inhibitors containing a decahydroquinoline, decahydro-1,6-naphthyridine, or octahydro-1H-pyrrolo[3,2-c]pyridine scaffold” (Bioorg Med Chem Lett, 2021).
Calls of active or inactive are those of the source. The calls are words filed in the database; no cut-off is given here.

How the values were obtained:
[1] = molecular target: T1, Indoleamine 2,3-dioxygenase 1 (Homo sapiens, UniProt P14902); assay: Inhibition of IDO1 in human HeLa cells assessed as production of N-formylkynurenine using tryptophan as substrate in presence of inactivated fetal bovine serum; type: cell-based
[2] = molecular target: Tryptophan 2,3-dioxygenase (Homo sapiens) (UniProt P48775); assay: Inhibition of TDO in human SW48 cells; type: cell-based
[3] = Clearance in male Wistar Han rats at 0.05 mg/kg, iv; type: ADME, organism-based; conditions: rat, in vivo
[4] = Unbound clearance in male Wistar Han rat at 0.05 mg/kg, iv; type: ADME, organism-based; conditions: in vivo
[5] = MRT in male Wistar Han rat at 0.05 mg/kg, iv; type: ADME, organism-based; conditions: in vivo
[6] = molecular target: T1, Indoleamine 2,3-dioxygenase 1; assay: Inhibition of IDO1 in human whole blood; type: tissue-based
[7] = molecular target: T1, Indoleamine 2,3-dioxygenase 1; assay: Inhibition of IDO1 in human whole blood assessed as unbound concentration; type: tissue-based
[8] = male, Wistar Han, read-out: MRT

Chain of Tryptophan 2,3-dioxygenase (Homo sapiens) (P48775 whole entry, looked up): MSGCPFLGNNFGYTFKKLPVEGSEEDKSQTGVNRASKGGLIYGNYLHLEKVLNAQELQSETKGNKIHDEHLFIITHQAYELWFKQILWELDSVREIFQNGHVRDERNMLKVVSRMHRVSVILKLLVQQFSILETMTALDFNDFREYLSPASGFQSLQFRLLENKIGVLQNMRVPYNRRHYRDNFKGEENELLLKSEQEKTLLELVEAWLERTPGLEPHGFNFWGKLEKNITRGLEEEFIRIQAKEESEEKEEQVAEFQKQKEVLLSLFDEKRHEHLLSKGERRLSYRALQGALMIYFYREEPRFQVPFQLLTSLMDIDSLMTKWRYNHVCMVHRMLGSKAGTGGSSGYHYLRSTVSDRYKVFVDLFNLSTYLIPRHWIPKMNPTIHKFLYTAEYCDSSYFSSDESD
T1 sequence (P14902 whole entry): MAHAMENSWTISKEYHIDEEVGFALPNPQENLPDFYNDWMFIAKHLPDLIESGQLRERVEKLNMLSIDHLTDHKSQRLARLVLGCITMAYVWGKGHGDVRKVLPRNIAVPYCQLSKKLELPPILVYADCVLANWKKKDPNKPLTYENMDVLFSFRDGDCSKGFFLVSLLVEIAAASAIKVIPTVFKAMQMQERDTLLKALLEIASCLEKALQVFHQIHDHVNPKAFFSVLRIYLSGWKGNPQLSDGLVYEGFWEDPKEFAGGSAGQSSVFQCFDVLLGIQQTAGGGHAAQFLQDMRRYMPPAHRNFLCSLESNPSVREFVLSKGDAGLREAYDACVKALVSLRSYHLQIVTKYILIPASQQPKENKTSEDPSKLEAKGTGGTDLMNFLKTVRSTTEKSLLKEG

Structure (SMILES) | IC50 [1] | inhibition [2] | other results
CC(C(=O)Nc1ccc(Cl)cc1)N1CCC2C(CCCN2C(=O)OC2CC2)C1 (stereo in doubt; 26) | 9.1 nM | – | –
CC(C(=O)Nc1ccc(Cl)cc1)N1CCC2C(CCCN2c2ccnc(C(F)(F)F)n2)C1 (stereo in doubt; 35) | 430 nM | – | –
CC(C(=O)Nc1ccc(Cl)cc1)N1CCC2C(CCCN2c2ccnc(C(F)(F)F)n2)C1 (stereo in doubt; 33) | 15 nM | – | clearance [3]: 19 mL/min/kg; CL free [4]: 8439 mL/min/kg; MRT [5, 8]: 3 h
O=C(Nc1ccc(F)cc1)C1(C2CCC3C(CCCN3c3ccnc(C(F)(F)F)n3)C2)CCC1 (stereo in doubt; 20) [listing 1 of 2 here] | 1.9 nM | – | IC50 [6]: 48 nM; IC50 [7]: 0.1 nM; CL free [4]: 9879 mL/min/kg; MRT ([5]; 0.05 mg/kg): 2.7 h
Cc1nccc(N2CCCC3CC(C4(C(=O)Nc5ccc(F)cc5)CCC4)CCC32)n1 (stereo in doubt; 16) [listing 1 of 2 here] | – | inactive | –
Cc1nccc(-n2ncc3c2CCN(C(C)C(=O)Nc2ccc(Cl)cc2)C3)n1 (stereo in doubt; 41) | 1050 nM | – | –
Cc1nccc(N2CCCC3CN(C(C)C(=O)Nc4ccc(Cl)cc4)CCC32)n1 (stereo in doubt; 29) | 302 nM | – | –
CC(C(=O)Nc1ccc(Cl)cc1)N1CCC2C(CCCN2c2ccnc(C(F)(F)F)n2)C1 (stereo in doubt; 36) | 5.4 nM | – | IC50 [6]: 1000 nM; CL free [4]: 27767 mL/min/kg; MRT ([5]; 0.05 mg/kg): 3.7 h
Cc1nccc(N2CCCC3CN(C(C)C(=O)Nc4ccc(Cl)cc4)CCC32)n1 (stereo in doubt; 31) | 2.9 nM | – | IC50 [6]: 130 nM
Cc1nccc(N2CCCC3CN(C(C)C(=O)Nc4ccc(Cl)cc4)CCC32)n1 (stereo in doubt; 32) | 12 nM | – | clearance [3]: 31 mL/min/kg; CL free [4]: 2381 mL/min/kg; MRT [5, 8]: 2.9 h
Cc1nccc(N2CCCC3CC(C4(C(=O)Nc5ccc(F)cc5)CCC4)CCC32)n1 (stereo in doubt; 15) [listing 1 of 2 here] | – | inactive | –
CC(C(=O)Nc1ccc(Cl)cc1)N1CCC2C(CCCN2C(=O)OC2CC2)C1 (stereo in doubt; 28) | 32 nM | – | –
O=C(Nc1ccc(F)cc1)C1(C2CCC3C(CCCN3c3ccnc(C(F)(F)F)n3)C2)CCC1 (stereo in doubt; 20) [listing 2 of 2 here] | – | inactive | –
O=C(Nc1ccc(F)cc1)C1(C2CCC3C(CCCN3c3ccnc(C(F)(F)F)n3)C2)CCC1 (stereo in doubt; 22) [listing 1 of 2 here] | – | inactive | –
CC(C(=O)Nc1ccc(Cl)cc1)N1CCC2C(CCCN2c2ccnc(C(F)(F)F)n2)C1 (stereo in doubt; 34) | 3.6 nM | – | IC50 [6]: 809 nM; CL free [4]: 13004 mL/min/kg
Cc1nccc(N2CCCC3CC(C4(C(=O)Nc5ccc(F)cc5)CCC4)CCC32)n1 (stereo in doubt; 18) [listing 1 of 2 here] | 5.2 nM | – | –

Structure (SMILES) | IC50 [1] | inhibition [2] | other results
O=C(Nc1ccc(F)cc1)C1(C2CCC3C(CCCN3c3ccnc(C(F)(F)F)n3)C2)CCC1 (stereo in doubt; 19) [listing 1 of 2 here] | – | inactive | –
O=C(Nc1ccc(F)cc1)C1(C2CCC3C(CCCN3c3ccnc(C(F)(F)F)n3)C2)CCC1 (stereo in doubt; 19) [listing 2 of 2 here] | 1.9 nM | – | CL free [4]: 13321 mL/min/kg; MRT [5, 8]: 1.9 h
Cc1nccc(N2CCCC3CC(C4(C(=O)Nc5ccc(F)cc5)CCC4)CCC32)n1 (stereo in doubt; 16) [listing 2 of 2 here] | 4.2 nM | – | CL free [4]: 1884 mL/min/kg; MRT ([5]; 0.05 mg/kg): 1.8 h
Cc1nccc(N2CCCC3CC(C4(C(=O)Nc5ccc(F)cc5)CCC4)CCC32)n1 (stereo in doubt; 18) [listing 2 of 2 here] | – | inactive | –
O=C(Nc1ccc(F)cc1)C1(C2CCC3C(CCCN3c3ccnc(C(F)(F)F)n3)C2)CCC1 (stereo in doubt; 21) [listing 1 of 2 here] | – | inactive | –
CC(C(=O)Nc1ccc(Cl)cc1)N1CCC2C(CCCN2C(=O)OC2CC2)C1 (stereo in doubt; 25) | 3.7 nM | – | IC50 [6]: 293 nM
Cc1nccc(N2CCCC3CC(C4(C(=O)Nc5ccc(F)cc5)CCC4)CCC32)n1 (stereo in doubt; 17) [listing 1 of 2 here] | – | inactive | –
Cc1nccc(N2CCCC3CC(C4(C(=O)Nc5ccc(F)cc5)CCC4)CCC32)n1 (stereo in doubt; 17) [listing 2 of 2 here] | 32 nM | – | –
CC(C(=O)Nc1ccc(Cl)cc1)N1CCC2C(CCN2C(=O)OC2CC2)C1 (stereo in doubt; 37) | 11 nM | – | –
CC(C(=O)Nc1ccc(Cl)cc1)N1CCC2C(CCN2C(=O)OC2CC2)C1 (stereo in doubt; 40) | 1150 nM | – | –
O=C(Nc1ccc(F)cc1)C1(C2CCC3C(CCCN3c3ccnc(C(F)(F)F)n3)C2)CCC1 (stereo in doubt; 22) [listing 2 of 2 here] | 3.2 nM | – | CL free [4]: 5951 mL/min/kg; MRT ([5]; 0.05 mg/kg): 3.5 h
CC(C(=O)Nc1ccc(Cl)cc1)N1CCC2C(CCN2C(=O)OC2CC2)C1 (stereo in doubt; 39) | 184 nM | – | CL free [4]: 664 mL/min/kg; MRT ([5]; 0.05 mg/kg): 2.8 h
CC(C(=O)Nc1ccc(Cl)cc1)N1CCC2C(CCN2C(=O)OC2CC2)C1 (stereo in doubt; 38) | 16 nM | – | CL free [4]: 2394 mL/min/kg; MRT [5, 8]: 1.5 h
O=C(Nc1ccc(F)cc1)C1(C2CCC3C(CCCN3c3ccnc(C(F)(F)F)n3)C2)CCC1 (stereo in doubt; 21) [listing 2 of 2 here] | 2.6 nM | – | CL free [4]: 7183 mL/min/kg; MRT ([5]; 0.05 mg/kg): 2.9 h
Cc1nccc(-n2ncc3c2CCN(C(C)C(=O)Nc2ccc(Cl)cc2)C3)n1 (stereo in doubt; 42) | 27700 nM | – | –
Cc1nccc(N2CCCC3CN(C(C)C(=O)Nc4ccc(Cl)cc4)CCC32)n1 (stereo in doubt; 30) | 40 nM | – | –

Second part, led by results:

IC50 [1] | inhibition [2] | Structure (SMILES) | other results
– | inactive | O=C(C1CC1)N1CCCC2CC(C3(C(=O)Nc4ccc(F)cc4)CCC3)CCC21 (stereo in doubt; 11) [listing 1 of 2 here] | –
3.9 nM | – | O=C(CN1CCC2C(CCCN2C(=O)c2cccc(Cl)c2)C1)Nc1ccc(F)cc1 (stereo in doubt; 23) | –
7 nM | – | O=C(c1cccc(Cl)c1)N1CCCC2CC(C3(C(=O)Nc4ccc(F)cc4)CCC3)CCC21 (stereo in doubt; 9) [listing 1 of 2 here] | –
2 nM | – | O=C(CN1CCC2C(CCCN2C(=O)c2cccc(Cl)c2)C1)Nc1ccc(F)cc1 (stereo in doubt; 24) | clearance [3]: 61 mL/min/kg; CL free [4]: 1401 mL/min/kg; MRT [5, 8]: 1.6 h
14 nM | – | O=C(c1cccc(Cl)c1)N1CCCC2CC(C3(C(=O)Nc4ccc(F)cc4)CCC3)CCC21 (stereo in doubt; 10) [listing 1 of 2 here] | –
1.9 nM | – | C[C@@H](C(=O)Nc1ccc(F)cc1)C1CCC2C(CCCN2C(=O)c2cccc(Cl)c2)C1 (stereo in doubt; 4) [listing 1 of 2 here] | –
– | inactive | O=C(C1CC1)N1CCCC2CC(C3(C(=O)Nc4ccc(F)cc4)CCC3)CCC21 (stereo in doubt; 12) [listing 1 of 2 here] | –
19 nM | – | O=C(C1CC1)N1CCCC2CC(C3(C(=O)Nc4ccc(F)cc4)CCC3)CCC21 (stereo in doubt; 13) [listing 1 of 2 here] | –
– | inactive | O=C(c1cccc(Cl)c1)N1CCCC2CC(C3(C(=O)Nc4ccc(F)cc4)CCC3)CCC21 (stereo in doubt; 7) [listing 1 of 2 here] | –
– | inactive | O=C(C1CC1)N1CCCC2CC(C3(C(=O)Nc4ccc(F)cc4)CCC3)CCC21 (stereo in doubt; 14) [listing 1 of 2 here] | –
115 nM | – | O=C(C1CC1)N1CCCC2CC(C3(C(=O)Nc4ccc(F)cc4)CCC3)CCC21 (stereo in doubt; 14) [listing 2 of 2 here] | –
– | inactive | O=C(C1CC1)N1CCCC2CC(C3(C(=O)Nc4ccc(F)cc4)CCC3)CCC21 (stereo in doubt; 13) [listing 2 of 2 here] | –
107 nM | – | O=C(C1CC1)N1CCCC2CC(C3(C(=O)Nc4ccc(F)cc4)CCC3)CCC21 (stereo in doubt; 11) [listing 2 of 2 here] | –
– | inactive | O=C(c1cccc(Cl)c1)N1CCCC2CC(C3(C(=O)Nc4ccc(F)cc4)CCC3)CCC21 (stereo in doubt; 9) [listing 2 of 2 here] | –
– | inactive | C[C@@H](C(=O)Nc1ccc(F)cc1)C1CCC2C(CCCN2C(=O)c2cccc(Cl)c2)C1 (stereo in doubt; 5) [listing 1 of 2 here] | –
– | inactive | O=C(c1cccc(Cl)c1)N1CCCC2CC(C3(C(=O)Nc4ccc(F)cc4)CCC3)CCC21 (stereo in doubt; 8) [listing 1 of 2 here] | –
1 nM | – | C[C@@H](C(=O)Nc1ccc(F)cc1)C1CCC2C(CCCN2C(=O)c2cccc(Cl)c2)C1 (stereo in doubt; 3) [listing 1 of 2 here] | IC50 [6]: 32 nM; clearance [3]: 51 mL/min/kg; IC50 [7]: 0.13 nM; CL free [4]: 4427 mL/min/kg; MRT [5, 8]: 1.6 h
1.6 nM | – | Cc1nccc(N2CCCC3CC(C4(C(=O)Nc5ccc(F)cc5)CCC4)CCC32)n1 (stereo in doubt; 15) [listing 2 of 2 here] | IC50 [6]: 10 nM; IC50 [7]: 0.29 nM; CL free [4]: 1309 mL/min/kg; MRT [5, 8]: 1.7 h
– | inactive | C[C@@H](C(=O)Nc1ccc(F)cc1)C1CCC2C(CCCN2C(=O)c2cccc(Cl)c2)C1 (stereo in doubt; 4) [listing 2 of 2 here] | –
2.1 nM | – | C[C@@H](C(=O)Nc1ccc(F)cc1)C1CCC2C(CCCN2C(=O)c2cccc(Cl)c2)C1 (stereo in doubt; 5) [listing 2 of 2 here] | IC50 [6]: 312 nM
2.3 nM | – | C[C@@H](C(=O)Nc1ccc(F)cc1)C1CCC2C(CCCN2C(=O)c2cccc(Cl)c2)C1 (stereo in doubt; 6) [listing 1 of 2 here] | CL free [4]: 4484 mL/min/kg; MRT ([5]; 0.05 mg/kg): 1.1 h
– | inactive | C[C@@H](C(=O)Nc1ccc(F)cc1)C1CCC2C(CCCN2C(=O)c2cccc(Cl)c2)C1 (stereo in doubt; 3) [listing 2 of 2 here] | –
1.5 nM | – | O=C(C1CC1)N1CCCC2CC(C3(C(=O)Nc4ccc(F)cc4)CCC3)CCC21 (stereo in doubt; 12) [listing 2 of 2 here] | IC50 [6]: 15 nM; IC50 [7]: 0.86 nM
3 nM | – | O=C(c1cccc(Cl)c1)N1CCCC2CC(C3(C(=O)Nc4ccc(F)cc4)CCC3)CCC21 (stereo in doubt; 8) [listing 2 of 2 here] | –
– | inactive | O=C(c1cccc(Cl)c1)N1CCCC2CC(C3(C(=O)Nc4ccc(F)cc4)CCC3)CCC21 (stereo in doubt; 10) [listing 2 of 2 here] | –
2.4 nM | – | O=C(c1cccc(Cl)c1)N1CCCC2CC(C3(C(=O)Nc4ccc(F)cc4)CCC3)CCC21 (stereo in doubt; 7) [listing 2 of 2 here] | IC50 [6]: 123 nM; IC50 [7]: 0.98 nM
– | inactive | C[C@@H](C(=O)Nc1ccc(F)cc1)C1CCC2C(CCCN2C(=O)c2cccc(Cl)c2)C1 (stereo in doubt; 6) [listing 2 of 2 here] | –
